According to US20110151469A1, “INTERFERON EPSILON (IFNE1) AS A MARKER FOR TARGETED CANCER THERAPY” (PIRAMAL LIFE SCIENCES LIMITED, priority 2008, published 2011):
Entries after “also recorded” stand apart in the source; their conditions may differ.

System: IFNE1 mRNA in HCT116 cells
Assay: QRT-PCR of IFNE1 transcript level in HCT116 cells treated with CDK and non-CDK inhibitors
Format: cell-based, human
Conditions: 6 hours, P276-00 250 nM, Flavopiridol 200 nM, Fascaplysin 500 nM, Roscovitine 20 μM, Olomoucine 180 μM, DRB 50 μM, 5-Fluorouracil 800 nM, Camptothecin 30 nM, Etoposide 3 μM, Vinblastin 1.5 μM, Quercitin 750 nM, Paclitaxel 600 nM, Doxorubicin 100 nM
Procedure: HCT116 cells were treated with various CDK inhibitors [P276-00 (250 nM), Flavopiridol (200 nM), Fascaplysin (500 nM), Roscovitine (20 μM), Olomoucine (180 μM), 5,6-dichloro-1-beta-D-ribofuranosylbenzimidazole (DRB, 50 μM)] and non-CDK inhibitors [5-Fluorouracil (800 nM), Camptothecin (30 nM), Etoposide (3 μM), Vinblastin (1.5 μM), Quercitin (750 nM), Paclitaxel (600 nM), Doxorubicin (100 nM)] for 6 hours. The level of IFNE1 mRNA was estimated using Real Time RT-PCR. Using Actin gene for normalization, relative IFNE1 expression level was plotted as log fold change.
To study if IFNE1 expression is a result of CDK inhibition, HCT116 cells were treated with a variety of CDK and non-CDK inhibitors and IFNE1 transcript level were measured using quantitative QRT-PCR. HCT116 cells were chosen for this assay because IFNE1 level seems to be most regulated in this cell line. The cells were treated with a variety of CDK inhibitors [P276-00 (250 nM), Flavopiridol (200 nM), Fascaplysin (500 nM), Roscovitine (20 μM), Olomoucine (180 μM), 5,6-dichloro-1-beta-D-ribofuranosylbenzimidazole (DRB) (50 μM)] and non-CDK inhibitors [5-Fluorouracil (800 nM), Camptothecin (30 nM), Etoposide (3 μM), Vinblastin (1.5 μM), Quercitin (750 nM), Paclitaxel (600 nM), Doxorubicin (100 nM)] for 6 hours and the IFNE1 transcript level were estimated. All inhibitors were purchased from Sigma and used at IC50 values described in literature.

Compound | change of IFNE1 mRNA level
O=c1[nH]cc(F)c(=O)[nH]1 [5-Fluorouracil] | do not cause a change
CC[C@@]1(O)C(=O)OCc2c1cc1n(c2=O)Cc2cc3ccccc3nc2-1 [Camptothecin] | do not cause a change
OC[C@H]1O[C@@H](n2cnc3cc(Cl)c(Cl)cc32)[C@H](O)[C@@H]1O [DRB, 5,6-dichloro-1-beta-D-ribofuranosylbenzimidazole] | upregulation
COc1cccc2c1C(=O)c1c(O)c3c(c(O)c1C2=O)C[C@@](O)(C(=O)CO)C[C@@H]3O[C@H]1C[C@H](N)[C@H](O)[C@H](C)O1 [Doxorubicin] | do not cause a change
COc1cc([C@@H]2c3cc4c(cc3[C@@H](O[C@@H]3O[C@@H]5CO[C@@H](C)O[C@H]5[C@H](O)[C@H]3O)[C@H]3COC(=O)[C@H]23)OCO4)cc(OC)c1O [Etoposide] | do not cause a change
O=C1c2ccccc2-[n+]2ccc3c([nH]c4ccccc43)c21 [Fascaplysin] | upregulation
CC(=O)O[C@H]1C(=O)[C@@]2(C)[C@H]([C@H](OC(=O)c3ccccc3)[C@]3(O)C[C@H](OC(=O)[C@H](O)[C@@H](NC(=O)c4ccccc4)c4ccccc4)C(C)=C1C3(C)C)[C@]1(OC(C)=O)CO[C@@H]1C[C@@H]2O [Paclitaxel] | do not cause a change
O=c1c(O)c(-c2ccc(O)c(O)c2)oc2cc(O)cc(O)c12 [Quercitin] | do not cause a change
CC[C@H](CO)Nc1nc(NCc2ccccc2)c2ncn(C(C)C)c2n1 [Roscovitine] | upregulation; also recorded: potentiated IFNE1 level maximally
CC[C@]1(O)C[C@@H]2CN(CCc3c([nH]c4ccccc34)[C@@](C(=O)OC)(c3cc4c(cc3OC)N(C)[C@H]3[C@@](O)(C(=O)OC)[C@H](OC(C)=O)[C@]5(CC)C=CCN6CC[C@]43[C@@H]65)C2)C1 [Vinblastin] | do not cause a change
